Assay results from US11813239B2, “Compositions and methods for improving cardiac structure and/or function” (Wisconsin Alumni Research Foundation, priority 2020, dated 2023).

How the values were obtained:
[1] = test system: postnatal (P7) mouse heart following myocardial infarction; assay: Echocardiography after myocardial infarction in P7 juvenile mice; conditions: for % EF (Ejection Fraction) / % FS (Fractional Shortening) / LV Mass (Left Ventricular Mass, Anatomical Weight) / LV Vol; d (Left Ventricular Volume; diastole) / LV Vol; s (Left Ventricular Volume; systole) / LVAWD (Left Ventricle Anterior Wall Thickness Diastole) / LVAWS (Left Ventricle Anterior Wall Thickness Systole) / LVIDD (Left Ventricle Internal Diameter Diastole) / LVIDS (Left Ventricle Internal Diameter Systole) / LVPWD (Left Ventricle Posterior Wall Thickness Diastole) / LVPWS (Left Ventricle Posterior Wall Thickness Systole): dimethyl malonate 100 mg/kg daily for 2 weeks from birth, mean ± SE
Description: (§1) Neonatal mice at postnatal day 1 (P1) or day 7 (P7) were used for myocardial infarction (MI) surgery. Neonatal mice were subjected to MI surgeries as previously described. Briefly, neonates were anesthetized by hypothermia on ice. Lateral thoracotomy at the fourth intercostal space was performed by blunt dissection of the intercostal muscles after skin incision. A C-1 tapered needle attached to a 6-0 prolene suture (Ethicon Inc., Bridgewater, N.J.) was passed through the mid-ventricle below the left anterior descending coronary artery (LAD) and tied off to induce MI. The prolene suture was used to suture the ribs together and seal the chest wall incisions, and the skin was closed using adhesive glue (3M). The mice then were warmed on a heating pad until recovery. Sham-operated mice underwent the same procedure including hypothermic anesthesia, but not LAD ligation.
(§2) Neonatal mice were weighed and injected daily with either saline, 100 mg/kg dimethyl succinate (Sigma), 100 mg/kg dimethyl malonate (Sigma), or 100 μg/kg Atpenin A5 (Enzo Life Sciences). Dimethyl succinate and dimethyl malonate were dissolved in saline. Stock solution of Atpenin A5 at 0.1 mg/ml was initially prepared by dissolving in DMSO (Sigma) and then further diluted with saline before injection. Saline was used as a vehicle control for all experiments.
(§3) Transthoracic echocardiography was performed by using a Visual Sonics 770 ultrasonograph with a 25-MHz transducer (Visual Sonics, Toronto) as described previously^19. Mice were lightly anesthetized with 1% isoflurane and maintained on a heated platform. Two-dimensionally guided M-mode images from a parasternal long axis (PLAX) of the left ventricle (LV) were acquired at the tip of the papillary muscles. Wall thickness and chamber diameters were measured in both diastole and systole. Fractional shortening was calculated as (LVDd−LVDs)/LVDd×100, where LVDd is LV diameter in diastole and LVDs is LV diameter in systole. Ejection fraction was calculated as [(7.0/(2.4+LVDd)(LVDd)^3−(7.0/(2.4+LVDs)(LVDs)^3/(7.0/(2.4+LVDd)(LVDd)^3×100 and LV mass was calculated by using the formula [1.05×((Posterior Walldiastole+Anterior Walldiastole+LVDd)^3−(LVDd)^3)]. All parameters were measured over at least three consecutive cycles.
We injected dimethyl malonate (100 mg/kg, daily) in neonatal mice directly after birth for 2 weeks with an MI performed once the mice reached P7. We then analyzed the hearts following injury to determine whether malonate results in prolongation of the neonatal regenerative window (FIG. 10A).

cardiomyocytes = assay: Immunostaining (pH3, Aurora B), WGA and trichrome staining after MI in P7 mice; conditions: MI at P7, dimethyl malonate 100 mg/kg daily for 2 weeks from birth, 21 days post-MI
Excerpt: We then analyzed the hearts following injury to determine whether malonate results in prolongation of the neonatal regenerative window (FIG. 5A). To examine whether malonate stimulates cardiomyocyte proliferation, we performed MI in 7-day-old mice and analyzed their hearts at 7 days post-MI by immunostaining for markers of proliferation.
as §1, §2
Hearts were harvested and fixed in 4% paraformaldehyde (PFA) in PBS solution overnight at 4° C., processed for paraffin embedding, and sectioned in intervals. Masson's trichrome staining was performed according to the manufacture's protocol (Newcomer Supply, Middleton, WI). Scar size measurements were quantified from at least 3 sections of the heart from ligature to apex. ImageJ was used to quantify the fibrotic scar, and the average scar area for each heart was plotted.
We injected dimethyl malonate (100 mg/kg, daily) in neonatal mice directly after birth for 2 weeks with an MI performed once the mice reached P7.

[2] = test system: adult mouse heart following myocardial infarction; assay: Echocardiography after adult MI, malonate treatment starting 1-week post-MI; conditions: for % EF (Ejection Fraction) / % FS (Fractional Shortening) / LV Mass (Left Ventricular Mass, Anatomical Weight) / LV Vol; d (Left Ventricular Volume; diastole) / LV Vol; s (Left Ventricular Volume; systole) / LVAWD (Left Ventricle Anterior Wall Thickness Diastole) / LVAWS (Left Ventricle Anterior Wall Thickness Systole) / LVIDD (Left Ventricle Internal Diameter Diastole) / LVIDS (Left Ventricle Internal Diameter Systole) / LVPWD (Left Ventricle Posterior Wall Thickness Diastole) / LVPWS (Left Ventricle Posterior Wall Thickness Systole): adult mice, MI, mean ± SE
Excerpt: Adult male mice (8-week-old) were subjected to MI by ligation of the proximal aspect of the LAD coronary artery. In brief, mice were anaesthetized using 3% isoflurane, then mice were intubated with PE50 tubing and placed on a mouse ventilator at 120-130 breaths per minute with a stroke volume of 150 microliters and maintained on 2% isoflurane. A left lateral incision through the fourth intercostal space was made to expose the heart. After visualizing the left coronary artery, 7-0 suture was placed through the myocardium in the anterolateral wall and secured as previously describer^17,18. Coronary artery entrapment was confirmed by observing blanching of the distal circulation (ventricular apex). ECG was used to confirm MI by noting ST segment changes. The lungs were over inflated, and the ribs and muscle layers were closed by absorbable sutures. The skin is closed by additional suturing using 6-0 nylon. The mouse was recovered from the anesthesia and extubated.
Saline was used as a vehicle control for all experiments. […] Adult mice were injected intraperitoneally daily with either saline or 100 mg/kg dimethyl malonate post-MI for 2 or 4 weeks.
as §3
To determine whether SDH inhibitors can promote a regenerative response following the establishment of infarction, we performed MI in 8-week-old mice and started malonate treatment at 1-week post-MI (FIG. 20A). […] Mice were then randomized and treated with saline or malonate for a period of 4 weeks, and hearts were harvested at 6 weeks post-MI (FIG. 20A).

[3] = MI at P7 (n = 6), echo 21 days post-MI (P7D21)
[4] = sham at P7 (SH, n = 6), echo at day 21 (P7D21)
[5] = 2 WPMI, dimethyl malonate 100 mg/kg daily for 4 weeks starting 1 WPMI
[6] = 3 WPMI, dimethyl malonate 100 mg/kg daily for 4 weeks starting 1 WPMI
[7] = 4 WPMI, dimethyl malonate 100 mg/kg daily for 4 weeks starting 1 WPMI
[8] = 6 WPMI, dimethyl malonate 100 mg/kg daily for 4 weeks starting 1 WPMI
[9] = malonate group, 1 WPMI (before start of dosing)

COC(=O)CC(=O)OC [Malonate, dimethyl malonate]
% EF (Ejection Fraction) [1, 3]: 69.751 ± 5.496%
% FS (Fractional Shortening) [1, 3]: 38.443 ± 4.043%
LV Mass (Left Ventricular Mass, Anatomical Weight) [1, 3]: 48.029 ± 9.293 mg
LV Vol; d (Left Ventricular Volume; diastole) [1, 3]: 24.289 ± 5.739 µL
LV Vol; s (Left Ventricular Volume; systole) [1, 3]: 8.741 ± 3.350 µL
LVAWD (Left Ventricle Anterior Wall Thickness Diastole) [1, 3]: 0.702 ± 0.029 mm
LVAWS (Left Ventricle Anterior Wall Thickness Systole) [1, 3]: 0.814 ± 0.023 mm
LVIDD (Left Ventricle Internal Diameter Diastole) [1, 3]: 2.490 ± 0.269 mm
LVIDS (Left Ventricle Internal Diameter Systole) [1, 3]: 1.578 ± 0.259 mm
LVPWD (Left Ventricle Posterior Wall Thickness Diastole) [1, 3]: 0.684 ± 0.037 mm
LVPWS (Left Ventricle Posterior Wall Thickness Systole) [1, 3]: 0.823 ± 0.022 mm
cardiac function by echocardiography (EF, FS, LVIDD, LVIDS) ([1]; MI at P7, dimethyl malonate 100 mg/kg daily for 2 weeks from birth, 21 days post-MI): restored to normal levels
% EF (Ejection Fraction) [1, 4]: 67.727 ± 3.762%
% FS (Fractional Shortening) [1, 4]: 37.135 ± 2.848%
LV Mass (Left Ventricular Mass, Anatomical Weight) [1, 4]: 62.439 ± 4.833 mg
LV Vol; d (Left Ventricular Volume; diastole) [1, 4]: 43.309 ± 5.883 µL
LV Vol; s (Left Ventricular Volume; systole) [1, 4]: 14.962 ± 3.612 µL
LVAWD (Left Ventricle Anterior Wall Thickness Diastole) [1, 4]: 0.650 ± 0.025 mm
LVAWS (Left Ventricle Anterior Wall Thickness Systole) [1, 4]: 0.820 ± 0.033 mm
LVIDD (Left Ventricle Internal Diameter Diastole) [1, 4]: 3.240 ± 0.185 mm
LVIDS (Left Ventricle Internal Diameter Systole) [1, 4]: 2.058 ± 0.204 mm
LVPWD (Left Ventricle Posterior Wall Thickness Diastole) [1, 4]: 0.643 ± 0.026 mm
LVPWS (Left Ventricle Posterior Wall Thickness Systole) [1, 4]: 0.818 ± 0.032 mm
cardiomyocyte cell size (wheat germ agglutinin staining) (cardiomyocytes): significant reduction in cardiomyocyte cell size
structural regeneration and fibrosis (trichrome staining) (cardiomyocytes; vs saline controls): complete heart regeneration
cardiac function by echocardiography ([2]; adult MI, malonate for 4 weeks starting 1-week post-MI, 4-weeks and 6-weeks post-MI): significant increase in cardiac function
% EF (Ejection Fraction) [2, 5]: 34.537 ± 4.592%
% FS (Fractional Shortening) [2, 5]: 16.507 ± 2.337%
LV Mass (Left Ventricular Mass, Anatomical Weight) [2, 5]: 118.559 ± 20.724 mg
LV Vol; d (Left Ventricular Volume; diastole) [2, 5]: 97.776 ± 23.854 µL
LV Vol; s (Left Ventricular Volume; systole) [2, 5]: 69.099 ± 20.899 µL
LVAWD (Left Ventricle Anterior Wall Thickness Diastole) [2, 5]: 0.698 ± 0.021 mm
LVAWS (Left Ventricle Anterior Wall Thickness Systole) [2, 5]: 0.833 ± 0.016 mm
LVIDD (Left Ventricle Internal Diameter Diastole) [2, 5]: 4.458 ± 0.467 mm
LVIDS (Left Ventricle Internal Diameter Systole) [2, 5]: 3.772 ± 0.497 mm
LVPWD (Left Ventricle Posterior Wall Thickness Diastole) [2, 5]: 0.671 ± 0.023 mm
LVPWS (Left Ventricle Posterior Wall Thickness Systole) [2, 5]: 0.814 ± 0.012 mm
% EF (Ejection Fraction) [2, 6]: 38.518 ± 3.865%
% FS (Fractional Shortening) [2, 6]: 18.642 ± 2.058%
LV Mass (Left Ventricular Mass, Anatomical Weight) [2, 6]: 90.090 ± 11.827 mg
LV Vol; d (Left Ventricular Volume; diastole) [2, 6]: 78.984 ± 13.627 µL
LV Vol; s (Left Ventricular Volume; systole) [2, 6]: 50.781 ± 11.724 µL
LVAWD (Left Ventricle Anterior Wall Thickness Diastole) [2, 6]: 0.623 ± 0.024 mm
LVAWS (Left Ventricle Anterior Wall Thickness Systole) [2, 6]: 0.791 ± 0.028 mm
LVIDD (Left Ventricle Internal Diameter Diastole) [2, 6]: 4.139 ± 0.296 mm
LVIDS (Left Ventricle Internal Diameter Systole) [2, 6]: 3.393 ± 0.326 mm
LVPWD (Left Ventricle Posterior Wall Thickness Diastole) [2, 6]: 0.613 ± 0.017 mm
LVPWS (Left Ventricle Posterior Wall Thickness Systole) [2, 6]: 0.764 ± 0.018 mm
% EF (Ejection Fraction) [2, 7]: 45.375 ± 5.597%
% FS (Fractional Shortening) [2, 7]: 24.529 ± 3.624%
LV Mass (Left Ventricular Mass, Anatomical Weight) [2, 7]: 90.726 ± 13.717 mg
LV Vol; d (Left Ventricular Volume; diastole) [2, 7]: 70.697 ± 15.089 µL
LV Vol; s (Left Ventricular Volume; systole) [2, 7]: 47.342 ± 10.954 µL
LVAWD (Left Ventricle Anterior Wall Thickness Diastole) [2, 7]: 0.687 ± 0.039 mm
LVAWS (Left Ventricle Anterior Wall Thickness Systole) [2, 7]: 0.809 ± 0.051 mm
LVIDD (Left Ventricle Internal Diameter Diastole) [2, 7]: 4.136 ± 0.349 mm
LVIDS (Left Ventricle Internal Diameter Systole) [2, 7]: 2.958 ± 0.419 mm
LVPWD (Left Ventricle Posterior Wall Thickness Diastole) [2, 7]: 0.962 ± 0.287 mm
LVPWS (Left Ventricle Posterior Wall Thickness Systole) [2, 7]: 1.015 ± 0.214 mm
% EF (Ejection Fraction) [2, 8]: 47.208 ± 4.087%
% FS (Fractional Shortening) [2, 8]: 23.535 ± 2.509%
LV Mass (Left Ventricular Mass, Anatomical Weight) [2, 8]: 107.845 ± 11.076 mg
LV Vol; d (Left Ventricular Volume; diastole) [2, 8]: 75.865 ± 9.652 µL
LV Vol; s (Left Ventricular Volume; systole) [2, 8]: 40.253 ± 6.696 µL
LVAWD (Left Ventricle Anterior Wall Thickness Diastole) [2, 8]: 0.718 ± 0.011 mm
LVAWS (Left Ventricle Anterior Wall Thickness Systole) [2, 8]: 0.831 ± 0.019 mm
LVIDD (Left Ventricle Internal Diameter Diastole) [2, 8]: 4.113 ± 0.228 mm
LVIDS (Left Ventricle Internal Diameter Systole) [2, 8]: 3.146 ± 0.214 mm
LVPWD (Left Ventricle Posterior Wall Thickness Diastole) [2, 8]: 0.738 ± 0.018 mm
LVPWS (Left Ventricle Posterior Wall Thickness Systole) [2, 8]: 0.846 ± 0.017 mm
% EF (Ejection Fraction) [2, 9]: 35.760 ± 3.523%
% FS (Fractional Shortening) [2, 9]: 17.077 ± 1.873%
LV Mass (Left Ventricular Mass, Anatomical Weight) [2, 9]: 105.118 ± 13.726 mg
LV Vol; d (Left Ventricular Volume; diastole) [2, 9]: 87.566 ± 16.492 µL
LV Vol; s (Left Ventricular Volume; systole) [2, 9]: 57.371 ± 11.845 µL
